Values quoted from earlier work in patent publication US7316771B2, “Medium for analytic and preparative electrophoresis” (Becton, Dickinson and Company, priority 2000, dated 2008).
Several values for one entry are separate records, joined by “and”; a condition that tells them apart may be missing. Identical values can stand only once. Like-named read-outs stand apart in the source and are kept apart here.

Settings: for pKa (Base): substance used as base in the medium; for pKa (Acid): substance used as acid in the medium

Structure (SMILES) | pKa (Base) | pKa (Acid) | pKa (Acid) (listed as 2-hydroxy pyridine)
CN(CC(=O)O)C(=N)N [Creatine] | 2.7 | – | –
NCC(=O)NCC(=O)O [Glycyl Glycine] | 3.1 | – | –
NC(=O)c1cccnc1 [Nicotinic Acid Amide] | 3.1 | – | –
Oc1ccncc1 [4-Hydroxy-Pyridine] | – | 11.2 | –
Oc1ccccn1 [2-Hydroxy-Pyridine] | – | 11.8 | 11.6
CCC(N)C(=O)O (centres unmarked) [2-Amino Butyric Acid] | 2.3 and 2.2 | – | –
C[N+](C)(C)CC(=O)O [Betaine] | 1.8 | – | –
CN1CC(=O)NC1=N [Creatinine] | 4.8 | – | –
O=C(O)c1ccccn1 [Picolinic Acid] | – | 5.5 | –
CC(C)C(=O)O [Isobutyric Acid] | – | 4.5 | –
